Results as given in patent US12145975B2, “Fusion proteins for the treatment of cardiometabolic diseases” (Shattuck Labs, Inc., priority 2022, dated 2024).
“Also recorded” adds a separate entry of the source. Where no end group is shown, it is not given here.

Tests used:
HFD-fed mice [1] = experiment: longer-term obesity model in HFD-fed mice; conditions: for blood glucose levels compared to the untreated mice: Days 0, 1, 10 and 15, FIG. 8E; for plasma insulin levels on Day 15: FIG. 8C right panel; for average daily food intake compared to the untreated mice: FIG. 8D; for collagen staining (fibrosis), liver sections stained with picrosirius red / collagen staining (fibrosis) in comparison with tirzepatide or dulaglutide: FIG. 8I; for hepatocellular ballooning and steatosis (liver H&E histology): FIG. 8J; for plasma insulin levels on Day 1: between 15 and 120 minutes after treatment, FIG. 8C left panel; for liver weight, PBS control versus treated mice / subcutaneous white adipose tissue (sWAT) weight: day 19 terminal necropsy; for liver weight, PBS control versus treated mice: FIG. 8G; for subcutaneous white adipose tissue (sWAT) weight: FIG. 8H; for tolerability / clinical observations: obesity model, repeated tail vein dosing; for change in body weight: tail vein on Day 0, 4, 7, 10, 14, 18, dulaglutide 1 mpk, tirzepatide 0.5 mpk, fusion protein 5 mpk, mRNA 1 mpk, FIG. 8A; for weights of individual mice: FIG. 8B; for collagen staining (fibrosis) in comparison with tirzepatide or dulaglutide: picrosirius red
Protocol: Mice (Male C57BL/6) were of approximately 13 weeks of age were housed 4 mice per cage. Following 2 weeks of acclimation, mice were introduced to 60% kcal HFD (Research Diets D12492). Cages were changed once, then changed once a week. Weekly body weights and non-fasted blood glucose were collected.
Mice were injected by tail vein with vehicle or the drugs on Day 0, Day 4, Day 7, Day 10, Day 14, and Day 18. Body weights were measured every 2 days. Change in body weight was calculated and plotted.
Cumulative food intake was measured between day 0 and 3, between day 4 and 7, between day 7 and day 11, and between day 11 and day 14, and represented as average daily food intake. For food consumption, remaining food was weighed on days 3, 8, and 15, and subtracted from the starting weight. This value was then normalized to the number of mice in the cage, and the number of days the mice had access to the food prior to weighing.
Blood glucose levels were measured on Days 0, 1, 10 and 15 and plotted.
On day 19 during terminal necropsy, liver and subcutaneous white adipose tissue were recovered weighed from treated animals.
To further analyze the changes in liver, histopathological analysis was conducted. Briefly, the liver tissue was stained with hematoxylin and eosin (H&E) and evaluated using standard techniques.

GIP receptor (GIPR) = biological target: T1, GIP receptor (GIPR) (Rattus norvegicus, UniProt P43219); experiment: cAMP-Glo assay in rat insulinoma INS-1 cells harboring a cAMP-luciferase reporter gene; format: cell-based; conditions: 1 hour glucose, then 2 hour incubation with increasing amounts; FIG. 4A
T1 construct: endogenous in cells; host or cells: rat INS-1 insulinoma cells (derivatives with a cAMP-luciferase reporter or pGloSensor-22F)
T1 sequence (P43219 19-455): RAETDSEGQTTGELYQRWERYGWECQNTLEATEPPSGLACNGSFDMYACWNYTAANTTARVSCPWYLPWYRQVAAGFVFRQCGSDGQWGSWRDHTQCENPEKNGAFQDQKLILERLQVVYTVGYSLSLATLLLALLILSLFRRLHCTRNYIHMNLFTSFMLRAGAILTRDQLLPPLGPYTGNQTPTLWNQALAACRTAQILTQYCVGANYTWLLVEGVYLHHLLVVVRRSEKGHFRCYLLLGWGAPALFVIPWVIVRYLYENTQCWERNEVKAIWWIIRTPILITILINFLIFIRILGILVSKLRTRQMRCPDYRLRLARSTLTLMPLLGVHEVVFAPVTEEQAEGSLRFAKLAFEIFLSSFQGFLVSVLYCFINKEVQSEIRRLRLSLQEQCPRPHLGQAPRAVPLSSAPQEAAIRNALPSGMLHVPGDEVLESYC
Text: Rat insulinoma INS-1 cells harboring a cAMP-luciferase reporter gene were used to study the activation of GIPR. Without wishing to be bound by theory, the activation of GIPR leads to temporary depletion of ATP because of consumption of ATP in cyclization reaction to produce cAMP as well as by phosphorylation by protein kinase A of its substrate. Without wishing to be bound by theory, the temporary depletion of ATP leads to an inhibition of luciferase activity, which needs ATP as a substrate.

HFD-fed mice [2] = experiment: glucose tolerance test (GTT) model in HFD-fed mice; format: in vivo; conditions: for serum insulin following glucose administration (time course) / glucose tolerance: GTT; for serum insulin following glucose administration (time course): FIG. 7C; for serum glucose following glucose administration (time course): i.v. treatment, 18 hours fast, 2 g/kg glucose i.v., tirzepatide 1.25 mpk, fusion protein 5 mpk, mRNA 1 mpk, FIG. 7A; for glucose tolerance: summary of Example 11
Protocol: Cages were changed once, then changed once a week.
The mice administered the above treatment by i.v. injections. The mice were then fasted for 18 hours and administered a dose of 2 g/kg glucose by i.v. injections. Blood samples were drawn by tail clip bleeding at 15, 30 and 60 minutes post dosing and cardiac bleeding was used at 2 hours after glucose injection as end-point.

GIPR = biological target: T2, GIPR (Rattus norvegicus, UniProt P43219); experiment: GIPR agonism/antagonism in rat INS-1 cells having pGloSensor-22F biosensor; format: cell-based; set-up: dose or concentration left out as unconfirmed
T2 construct: endogenous in cells; host or cells: rat INS-1 insulinoma cells (derivatives with a cAMP-luciferase reporter or pGloSensor-22F)
T2 sequence (P43219 19-455): T1 sequence (P43219 19-455)
Protocol: A series of GIP antagonist peptides were evaluated at blocking human GIP (hGIP) agonism and the induction of cAMP. Briefly, rat INS-1 cells having pGloSensor-22F (Promega) were constructed and used to evaluate GIPR agonism and antagonism. […] The conformational change leads to the activation of the luciferase enzyme, thereby allowing detection of activation of GIPR, which produces cAMP upon activation.
To assay for GIPR agonism, rat INS-1 cells having pGloSensor-22F biosensor were treated with increasing concentrations of GIP(Ag). Immediately after the addition, the luminescence of the cells was measured, normalized using the basal luminescence and plotted.
GIPR antagonism was measured as the inhibition of GIP(Ag)-induced activation of the cAMP-luciferase reporter gene in rat INS-1 cells having pGloSensor-22F biosensor. The following GIP derivatives accessed in this assay for GIPR antagonism: GIP(Ant 3-30), GIP(Ant 3-30NH2), (GIP(Ant 3-30) having amidated carboxy terminus), GIP(AntPro3), GIP(AntPro3NH2), GIP(Ant3-30, Pro3) and GIP(Ant3-30, Pro3NH2). Briefly, rat INS-1 cells having pGloSensor-22F were treated with increasing doses of the above various GIP derivatives, mixed with […] GIP(Ag). Immediately after the addition, the luminescence of the cells was measured, normalized using the basal luminescence and plotted.
The GIP(Ag) was re-evaluated across a broader concentration range. Rat INS-1 cells having pGloSensor-22F biosensor were treated with increasing concentrations of GIP(Ag). Immediately after the addition, the luminescence of the cells was measured, normalized using the basal luminescence and plotted.
The GIP(AntPro3) and GIP(AntPro3NH2) were re-evaluated across a broader concentration range. Briefly, rat INS-1 cells having pGloSensor-22F were treated with increasing doses of GIP(AntPro3) and GIP(AntPro3NH2), mixed with […] GIP(Ag). Immediately after the addition, the luminescence of the cells was measured, normalized using the basal luminescence and plotted.

[3] = tested on: rat insulinoma INS-1 cells; experiment: in vitro glucose-stimulated insulin secretion (GSIS) in rat insulinoma INS-1 cells; format: cell-based; conditions: 1 hour glucose, then 2 hour incubation; ELISA; FIG. 4B
Text: X is a known inducer of GSIS.

[4] = broader concentration range, mixed with GIP(Ag), FIG. 5B
[5] = increasing doses mixed with GIP(Ag), FIG. 5A

| Substance | blood glucose levels compared to the untreated mice (HFD-fed mice [1]) | plasma insulin levels on Day 15 (HFD-fed mice [1]) | average daily food intake compared to the untreated mice (HFD-fed mice [1]) | collagen staining (fibrosis), liver sections stained with picrosirius red (HFD-fed mice [1]) | hepatocellular ballooning and steatosis (liver H&E histology) (HFD-fed mice [1]) | plasma insulin levels on Day 1 (HFD-fed mice [1]) | liver weight, PBS control versus treated mice (HFD-fed mice [1]) | subcutaneous white adipose tissue (sWAT) weight (HFD-fed mice [1]) | tolerability / clinical observations (HFD-fed mice [1]) | change in body weight (HFD-fed mice [1]) | inhibition of luciferase (activation of GIPR) (GIP receptor (GIPR)) | serum insulin following glucose administration (time course) (HFD-fed mice [2]) | serum glucose following glucose administration (time course) (HFD-fed mice [2]) | hepatocellular ballooning and steatosis (liver H&E histology) compared to untreated animals (HFD-fed mice [1]; higher magnifications, FIG. 8K) | inhibition of GIP(Ag)-induced activation of the cAMP-luciferase reporter gene (GIPR antagonism) (GIPR; [4]) | inhibition of GIP(Ag)-induced activation of the cAMP-luciferase reporter gene (GIPR antagonism) (GIPR; [5]) | insulin in the culture supernatant (glucose-stimulated insulin secretion) [3] | glucose tolerance (HFD-fed mice [2]) | weights of individual mice (HFD-fed mice [1]) | collagen staining (fibrosis) in comparison with tirzepatide or dulaglutide (HFD-fed mice [1]) |
| --- | --- | --- | --- | --- | --- | --- | --- | --- | --- | --- | --- | --- | --- | --- | --- | --- | --- | --- | --- | --- |
| dulaglutide [reference compound] | decrease in blood glucose | significant decrease in the levels of insulin | decrease in food intake | decrease in collagen staining | decrease in hepatocellular ballooning and steatosis | rapid decrease in insulin levels | the livers of control mice that received only PBS were much heavier compared to the mice receiving treatments | decreased | well tolerated and no overt toxicities were noted | progressive weight loss |  |  |  |  |  |  |  |  |  |  |
| tirzepatide [reference compound] | decrease in blood glucose | significant decrease in the levels of insulin | decrease in food intake | decrease in collagen staining | decrease in hepatocellular ballooning and steatosis |  | the livers of control mice that received only PBS were much heavier compared to the mice receiving treatments | decreased |  | progressive weight loss | dose-dependent and saturable inhibition of luciferase with similar potency | rapid induction of insulin | much smaller increase in serum glucose | significant decrease in hepatocellular ballooning and steatosis |  |  |  |  |  |  |
| GIP(AntPro3NH2): GIP antagonist peptide, GIP(AntPro3) presumably with amidated carboxy terminus (YAPGTFISDYSIAMDKIHQQDFVNWLLAQKGKKNDWKHNITQ; also: presumably amidated C-terminus) |  |  |  |  |  |  |  |  |  |  |  |  |  |  | dose-dependent inhibition of GIP(Ag)-induced activation of the cAMP-luciferase reporter gene | more potent inhibition of GIP agonist signaling than the others tested; also recorded: maximal level of a dose-dependent inhibition of GIP(Ag)-induced activation |  |  |  |  |
| GLP-1-Fc-GIP(Ag): chimeric protein: GLP-1 fused to GIP agonist (amino acids 1-42) via IgG1 hinge-CH2-CH3 Fc domain; SEQ ID NO: 93 | decrease in blood glucose | significant decrease in the levels of insulin | decrease in food intake | decrease in collagen staining | decrease in hepatocellular ballooning and steatosis | rapid decrease in insulin levels | the livers of control mice that received only PBS were much heavier compared to the mice receiving treatments | decreased | well tolerated and no overt toxicities were noted | progressive weight loss |  | rapid induction of insulin | much smaller increase in serum glucose |  |  |  | stimulated insulin production to a similar, if not greater magnitude than dulaglutide or tirzepatide | improved glucose tolerance | induced weight loss | greater decrease in collagen staining compared to the livers from mice treated with tirzepatide or dulaglutide |
| GLP-1-Fc-GIP(AntPro3): chimeric protein: GLP-1 fused to GIP antagonist (amino acids 1-42, E3P) via IgG1 Fc domain; SEQ ID NO: 95 | decrease in blood glucose | significant decrease in the levels of insulin | decrease in food intake | decrease in collagen staining | decrease in hepatocellular ballooning and steatosis | rapid decrease in insulin levels | the livers of control mice that received only PBS were much heavier compared to the mice receiving treatments | decreased | well tolerated and no overt toxicities were noted | progressive weight loss |  | rapid induction of insulin | much smaller increase in serum glucose |  |  |  |  | improved glucose tolerance | induced weight loss | greater decrease in collagen staining compared to the livers from mice treated with tirzepatide or dulaglutide |
| GIP(AntPro3): GIP Antagonist (amino acids 1-42, having a E3P substitution); SEQ ID NO: 97 (YAPGTFISDYSIAMDKIHQQDFVNWLLAQKGKKNDWKHNITQ) |  |  |  |  |  |  |  |  |  |  |  |  |  |  | dose-dependent inhibition of GIP(Ag)-induced activation of the cAMP-luciferase reporter gene | more potent inhibition of GIP agonist signaling than the others tested; also recorded: maximal level of a dose-dependent inhibition of GIP(Ag)-induced activation |  |  |  |  |
